SMILES strings stand for the structures.

The subject of one test is 3T3-L1 adipocytes. Briefly: HPLC of non-protein-bound intracellular tyrosines. Type of test: cell-based, mouse. Conditions: for cellular uptake of amino acids (non-protein-bound intracellular content): 5 or 25 mmol/L glucose, with or without 400 nmol/L insulin; for uptake by fat cells: time-dependent incubation. On the procedure:
Early passages of mouse embryo fibroblast (3T3-L1) (ATCC, Manassas, VA, US) were cultured in Dulbecco’s modified Eagle medium (DMEM, Sigma Aldrich, Budapest, Hungary, CAT number: D6046; Invitrogen, Waltham, MA, USA, CAT number: 41966-029) supplemented with 100 U/mL penicillin, 0.1 mg/mL streptomycin (Gibco, Budapest, Hungary, CAT number: 15070-063) and 10% heat-inactivated Fetal Bovine Serum (FBS, Gibco, CAT number: 16170-078), supplemented with 398 nM p-, m-, or o-Tyr (equimolar to the original p-Tyr content of the medium) purchased from Sigma (CAT number: para-Tyr: T8566, m-Tyr: T3629, o-Tyr: 93851). Media contained 25 or 5 mmol/L glucose (experiment dependent) pyruvate and L-glutamine. Cells were grown at 37 °C and 5% CO2. Adipocyte differentiation was achieved by DMEM supplemented with 10% FBS (Gibco, Csertex, Budapest, Hungary, CAT number: 10106-169) (FBS) and a […] insulin (Sigma Aldrich, Budapest, Hungary, CAT number: I 9278), […] isobuthylmethylxanthine (Sigma Aldrich, Budapest, Hungary, CAT number: I 5879), and 250 nmol/L dexamethasone (Sigma Aldrich, Budapest, Hungary, CAT number: 861871) containing cocktail. From day 4 onward, cultures were maintained in DMEM containing 1.5 μg/mL insulin and 10% FBS with a medium change every other day until experimental treatments were started. After 90% of the cell population reached the adipocyte phenotype, prior to all treatments, cells were incubated overnight in serum-deprived medium. Experimental treatment was performed in serum-deprived medium containing 200 or 400 nmol/L insulin, for 5 min.
To measure the total intracellular non-protein-bound tyrosine concentration, prior to the freezing of samples overnight at −70 °C to achieve cell lysis, 200 μL distilled water was added to each. After melting up, samples were centrifuged for 15 min at 15,000 rpm. A total of 200 µL of the supernatant was mixed with 200 µL of 60% trichloroacetic acid. After 30 min incubation on ice, samples were centrifuged again at 15,000 rpm for 15 min. Then, the supernatant was filtered and was diluted 5-fold and then 160 µL distilled water was added to 40 µL of filtrate, followed by the injection of the mixture onto the HPLC column.
The amounts of p-, o-, m-Tyr and Phe in the samples were determined by measuring their autofluorescence. Thus, no derivatization or staining was needed. Samples were measured on a Shimadzu Class 10 HPLC system equipped with an RF-10 AXL fluorescent detector (Shimadzu USA Manufacturing Inc., Canby, OR, USA). The mobile phase consisted of 1% sodium acetate and 1% acetic acid dissolved in water. The separation took place on a LiChroCHART 250-4 column (Merck KGaA, Darmstadt 64271, Germany) in an isocratic run. Wavelengths of 275 nm for excitation and 305 nm for emission were used to assess p-, o- and m-Tyr, while Phe was detected at 258 nm excitation and 288 nm emission wavelengths. Determination of the area under the curve (AUC) plus external standard calibration was used to calculate the precise concentrations of the amino acids.

In test [1] the test system is GLUT4 and vimentin in podocytes. Briefly: Immunofluorescence of GLUT4 and vimentin in insulin-treated podocytes. The format is cell-based, human. Particulars: for GLUT4 membrane localization: 400 nmol/l insulin for 10 min. As to the method: The conditionally immortalized human podocyte cell line (provided by Moin Saleem, University of Bristol, UK) was cultured in RPMI1640 medium (R8756, Sigma Aldrich, Budapest, Hungary) supplemented with 10% heat-inactivated FBS (16170-078, Gibco, Budapest, Hungary), insulin-transferrin-selenium supplement (41400-045, Gibco), 100 U/mL penicillin, 0.1 mg/mL streptomycin (P4333, Sigma), and […] (equimolar to the original p-Tyr content of the medium) para-, meta-, or ortho-Tyr. The cells were grown at 33 °C 5% CO2, and when they reached 40–60% confluency they were transferred to 37 °C to differentiate. Following the thermoswitching, cells were kept on RPMI1640 medium containing 2% FBS, antibiotics, and different tyrosines. Before every treatment, cells were incubated in serum-deprived medium overnight.
In a 6-well plate, 104 cells were cultured on glass coverslips washed with alcohol and dried under UV light. The podocyte cells were grown in RPMI1640 medium supplemented with 10% heat-inactivated FBS at 33 °C, 5% CO2. When they reached 60% confluence, the medium was changed to RPMI1640 medium containing 2% FBS and 112.05 nM of the different tyrosine isoforms, then the plates were transferred to 37 °C, 5% CO2 to allow the cells to differentiate. The different tyrosine isoforms were added to the maintenance medium. The cells were serum deprived overnight, then incubated with 400 nmol/l insulin for 10 min. After removal of the medium, the coverslips were washed twice with PBS. The cells were fixed at room temperature in 2% paraformaldehyde and 4% sucrose for 8 min, then permeabilized using 0.3% Trion X-100 in 1xPBS for 20 min and blocked in 2.5% BSA for 45 min [45]. The primary antibody was diluted in 1xPBS, and the cells were incubated in it for 60 min in humid conditions. The antibodies we used were mouse anti-WT1 antibody (H-1) (1:100, Santa Cruz Biotechnology, Dallas, TX, USA), chicken anti-vimentin antibody (1:100, Abcam), rabbit anti-glucose transporter GLUT4 antibody (1:100, Abcam, Cambridge, UK), mouse Insulin Receptor Substrate-1 antibody (1:100, Invitrogen, Waltham, MA, USA), and rabbit anti-phospho-Insulin Receptor Substrate-1 (pTyr612) antibody (1:10, Sigma). Coverslips were washed in PBS three times for 5 min in PBS and incubated in the fluorophore-conjugated secondary antibodies anti-goat, anti-chicken, secondary antibody Alexa fluor 647, anti-rabbit Alexa fluor 350, and anti-mouse Alexa Fluor 488 (1:10, Invitrogen) for 60 min. Samples were then washed in PBS three times for 5 min and mounted in Vectashield (Vector Laboratories). Images were taken with a Nikon Eclipse Ti2 microscope.

`NC(Cc1ccccc1O)C(=O)O` (centres unmarked) [o-Tyr, ortho-tyrosine]: in the test on 3T3-L1 adipocytes, the “cellular uptake of amino acids (non-protein-bound intracellular content)” value was “continuous uptake of amino acids which was independent of glucose concentration (5 or 25 mmol/L) and the presence of insulin”; the “uptake by fat cells” value is on record as “Taken Up by Fat Cells within Several Minutes”. Moreover, in test [1], the vimentin filaments result is on record as “thicker vimentin filaments” and the GLUT4 membrane localization result is “not characteristic in o-Tyr treated cells, which shows rather a perinuclear localization”.
Consider `N[C@@H](Cc1cccc(O)c1)C(=O)O` [m-Tyr, meta-tyrosine], for which, in the test with 3T3-L1 adipocytes, the “cellular uptake of amino acids (non-protein-bound intracellular content)” value is “continuous uptake of amino acids which was independent of glucose concentration (5 or 25 mmol/L) and the presence of insulin”; the “uptake by fat cells” value was “Taken Up by Fat Cells within Several Minutes”. In test [1], the vimentin filaments result is “thicker vimentin filaments” and the GLUT4 membrane localization entry was “slightly visible”.

(Values after publication PMC9138545, “Incorporation of Oxidized Phenylalanine Derivatives into Insulin Signaling Relevant Proteins May Link Oxidative Stress to Signaling Conditions Underlying Chronic Insulin Resistance” (Biomedicines, 2022).)
